Measured values published in patent US10428080B2, “TBK/IKK inhibitor compounds and uses thereof” (Merck Patent GmbH, priority 2015, dated 2019).
pIC50: −log10 of the molar value. Where a name gives a salt, the structure may show the parent alone. Read-outs that look alike come from different tables or passages of the source.

How the values were obtained:
[1] = test system: phosphorylation of the IRF-3 protein in MDA-MB-468 cells; assay: pIRF3 immunocytochemistry cell based assay; conditions: Homo sapiens
Method in brief: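 MDA-MB-468 cells got compounds (10-point, 3-fold from 10 uM) for 1 h at 37 °C, then 10 ug/ml Poly(I:C) for 2 h. Fixed, permeabilized cells were immunostained for pIRF3 with AlexaFluor488 and counterstained with PI. % phosphorylation was read by laser scanning cytometry, and IC50 curves were fitted.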

TBK1 = target: T1, TBK1 (Homo sapiens, UniProt Q9UHD2); assay: TBK Biochemical Assay
T1 sequence (Q9UHD2 1-729): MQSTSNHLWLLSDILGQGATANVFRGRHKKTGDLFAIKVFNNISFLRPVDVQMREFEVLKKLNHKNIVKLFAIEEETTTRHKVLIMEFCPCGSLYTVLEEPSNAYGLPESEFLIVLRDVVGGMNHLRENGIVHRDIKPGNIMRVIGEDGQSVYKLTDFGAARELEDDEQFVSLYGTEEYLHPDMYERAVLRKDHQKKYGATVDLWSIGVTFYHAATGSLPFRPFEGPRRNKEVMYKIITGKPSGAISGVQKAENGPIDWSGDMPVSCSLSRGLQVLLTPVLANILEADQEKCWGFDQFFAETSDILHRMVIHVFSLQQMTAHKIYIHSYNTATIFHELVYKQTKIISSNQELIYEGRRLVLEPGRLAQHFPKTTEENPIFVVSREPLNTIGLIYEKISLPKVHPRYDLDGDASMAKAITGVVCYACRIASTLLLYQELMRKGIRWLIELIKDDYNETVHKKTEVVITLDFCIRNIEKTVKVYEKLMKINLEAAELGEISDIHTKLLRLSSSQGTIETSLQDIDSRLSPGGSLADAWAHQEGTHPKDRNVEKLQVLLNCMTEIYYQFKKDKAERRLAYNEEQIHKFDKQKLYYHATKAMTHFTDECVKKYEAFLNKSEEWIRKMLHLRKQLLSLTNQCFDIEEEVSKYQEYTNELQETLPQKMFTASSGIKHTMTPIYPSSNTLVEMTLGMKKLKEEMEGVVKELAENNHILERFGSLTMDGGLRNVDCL
Method in brief: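 TBK1 enzyme and substrate incubated with compounds (10-point 1:4 dilution, top 30 uM final, 1% DMSO) for 90 min at 25° C, then stopped. Substrate/product peaks read by microfluidic mobility-shift (Caliper LabChip); 10 uM staurosporine as full-inhibition control.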

IKKε = target: T2, IKKε (Homo sapiens, UniProt Q14164); assay: IKKe Biochemical Assay
T2 sequence (Q14164 1-716): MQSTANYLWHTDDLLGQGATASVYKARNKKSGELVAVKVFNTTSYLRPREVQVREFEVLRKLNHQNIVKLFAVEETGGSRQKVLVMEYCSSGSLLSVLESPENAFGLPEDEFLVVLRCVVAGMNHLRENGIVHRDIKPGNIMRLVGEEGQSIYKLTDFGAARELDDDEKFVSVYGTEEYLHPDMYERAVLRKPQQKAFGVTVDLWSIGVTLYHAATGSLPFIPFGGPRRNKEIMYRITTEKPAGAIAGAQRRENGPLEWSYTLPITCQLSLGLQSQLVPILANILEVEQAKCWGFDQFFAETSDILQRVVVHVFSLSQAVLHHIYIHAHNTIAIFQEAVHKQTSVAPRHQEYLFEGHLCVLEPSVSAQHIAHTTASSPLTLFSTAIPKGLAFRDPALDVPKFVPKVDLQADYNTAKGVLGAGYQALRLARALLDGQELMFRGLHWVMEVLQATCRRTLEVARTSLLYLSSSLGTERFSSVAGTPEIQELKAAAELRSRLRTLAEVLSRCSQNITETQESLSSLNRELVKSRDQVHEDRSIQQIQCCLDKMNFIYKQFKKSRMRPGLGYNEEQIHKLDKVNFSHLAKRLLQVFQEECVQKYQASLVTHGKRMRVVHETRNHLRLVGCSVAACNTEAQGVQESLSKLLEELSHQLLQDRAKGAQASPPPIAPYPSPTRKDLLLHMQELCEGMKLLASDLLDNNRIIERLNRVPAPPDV
Method in brief: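 Recombinant IKKε and substrate were incubated with compound (10-point 1:4 series, top 30 uM final, 1% DMSO) for 90 min at 25° C, then stopped. Substrate-to-product conversion was read by LabChip microfluidic mobility shift; 10 uM staurosporine served as full-inhibition wells.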

[2] = MDA-MB-468 cells, Poly(I:C) stimulation, read-out: pIRF3 IC50

Compound | pIC50 [1, 2] | pIC50 (TBK1; read-out: TBK1 IC50) | pIC50 (IKKε; read-out: IKKε IC50) | pIC50 ([1]; MDA-MB-468, read-out: pIRF3 IC50) | pIC50 (TBK1; TBK1 IC50) | pIC50 (IKKε)
COc1cc(C(=O)NCC(O)CO)ccc1-c1cc2nccc(-c3ccc(NC4CCOCC4)c(C#N)c3)c2o1 (stereo not drawn) [Compound 111, 4-{7-[3-Cyano-4-(tetrahydro-pyran-4-ylamino)-phenyl]-furo[3,2-b]pyridin-2-yl}-N-(2,3-dihydroxy-propyl)-3-methoxy-benzamide] | 6.00 to 7.00 | > 7.00 | > 7.00 |  |  | 
COc1cc(C(=O)N(C)C)ccc1-c1cc2nccc(-c3ccc(OC4CCN(C(C)=O)CC4)c(C#N)c3)c2o1 [Compound 112, 4-{7-[4-(1-Acetyl-piperidin-4-yloxy)-3-cyano-phenyl]-furo[3,2-b]pyridin-2-yl}-3-methoxy-N,N-dimethyl-benzamide] | 6.00 to 7.00 | > 7.00 | > 7.00 |  |  | 
COc1cc(C(=O)NC2CCOC2)ccc1-c1cc2nccc(-c3ccc(NC4CCOCC4)c(C#N)c3)c2o1 (stereo not drawn) [Compound 117, 4-{7-[3-Cyano-4-(tetrahydro-pyran-4-ylamino)-phenyl]-furo[3,2-b]pyridin-2-yl}-3-methoxy-N-(tetrahydro-furan-3-yl)-benzamide] | 6.00 to 7.00 | > 7.00 | > 7.00 |  |  | 
COc1cc(C(=O)NCCC2CCNCC2)ccc1-c1cc2nccc(-c3ccc(OC4CCOCC4)c(C#N)c3)c2o1 [Compound 118, 4-{7-[3-Cyano-4-(tetrahydro-pyran-4-yloxy)-phenyl]-furo[3,2-b]pyridin-2-yl}-3-methoxy-N-(2-piperidin-4-yl-ethyl)-benzamide hydrochloride] | 6.00 to 7.00 | > 7.00 | > 7.00 |  |  | 
COc1cc(C(=O)NC2CN3CCC2CC3)ccc1-c1cc2nccc(-c3ccc(NC4C5COCC54)c(C#N)c3)c2o1 (stereo not drawn) [Compound 119, N-(1-Aza-bicyclo[2.2.2]oct-3-yl)-4-{7-[3-cyano-4-(3-oxa-bicyclo[3.1.0]hex-6-ylamino)-phenyl]-furo[3,2-b]pyridin-2-yl}-3-methoxy-benzamide] |  |  |  | > 7.00 | > 7.00 | > 7.00
CN(C)C(=O)c1ccc(-c2cc3nccc(-c4ccc(N5CC[C@@H](F)C5)c(C#N)c4)c3o2)cc1 [Compound 120, 4-{7-[3-Cyano-4-((R)-3-fluoro-pyrrolidin-1-yl)-phenyl]-furo[3,2-b]pyridin-2-yl}-N,N-dimethyl-benzamide] | 6.00 to 7.00 | > 7.00 | > 7.00 |  |  | 
COc1cc(C(=O)NC2CC(O)C2)ccc1-c1cc2nccc(-c3ccc(NC4CCOCC4)c(C#N)c3)c2o1 (stereo not drawn) [Compound 122, 4-{7-[3-Cyano-4-(tetrahydro-pyran-4-ylamino)-phenyl]-furo[3,2-b]pyridin-2-yl}-N-(3-hydroxy-cyclobutyl)-3-methoxy-benzamide] | 6.00 to 7.00 | > 7.00 | > 7.00 |  |  | 
COc1cc(C(=O)NC2CCN(C(=O)OC(C)(C)C)C2)ccc1-c1cc2nccc(-c3ccc(OC4CCOCC4)c(C#N)c3)c2o1 (stereo not drawn) [Compound 125, 3-(4-{7-[3-Cyano-4-(tetrahydro-pyran-4-yloxy)-phenyl]-furo[3,2-b]pyridin-2-yl}-3-methoxy-benzoylamino)-pyrrolidine-1-carboxylic acid tert-butyl ester] | 6.00 to 7.00 | > 7.00 | > 7.00 |  |  | 
CN(C)C(=O)c1ccc(-c2cc3nccc(-c4ccc(OC5CCOCC5F)c(C#N)c4)c3o2)cc1 (stereo not drawn) [Compound 129] | 6.00 to 7.00 | > 7.00 | > 7.00 |  |  | 
COc1cc(C(=O)NC2CCNC2)ccc1-c1cc2nccc(-c3ccc(NC4CCOCC4)c(C#N)c3)c2o1 (stereo not drawn) [Compound 130, 4-{7-[3-Cyano-4-(tetrahydro-pyran-4-ylamino)-phenyl]-furo[3,2-b]pyridin-2-yl}-3-methoxy-N-pyrrolidin-3-yl-benzamide] | 6.00 to 7.00 | > 7.00 | > 7.00 |  |  | 
COc1cc(C(=O)NC(C)(C)CN(C)C)ccc1-c1cc2nccc(-c3ccc(NC4CCOCC4)c(C#N)c3)c2o1 [Compound 134, 4-{7-[3-Cyano-4-(tetrahydro-pyran-4-ylamino)-phenyl]-furo[3,2-b]pyridin-2-yl}-N-(2-dimethylamino-1,1-dimethyl-ethyl)-3-methoxy-benzamide] | 6.00 to 7.00 | > 7.00 | > 7.00 |  |  | 
N#Cc1cc(-c2ccnc3cc(-c4ccc(C(=O)NC5CN6CCC5CC6)cc4F)oc23)ccc1OC1CCOCC1 (stereo not drawn) [Compound 139, N-(1-Aza-bicyclo[2.2.2]oct-3-yl)-4-{7-[3-cyano-4-(tetrahydro-pyran-4-yloxy)-phenyl]-furo[3,2-b]pyridin-2-yl}-3-fluoro-benzamide] | 6.00 to 7.00 | > 7.00 | > 7.00 |  |  | 

The next lines start with results.

pIC50 [1, 2] | pIC50 (TBK1; read-out: TBK1 IC50) | pIC50 (IKKε; read-out: IKKε IC50) | Compound | pIC50 ([1]; MDA-MB-468, read-out: pIRF3 IC50) | pIC50 (TBK1; TBK1 IC50) | pIC50 (IKKε)
6.00 to 7.00 | > 7.00 | > 7.00 | COc1cc(C(=O)NN)ccc1-c1cc2nccc(-c3ccc(OC4CCOCC4)c(C#N)c3)c2o1 [Compound 110, 4-{7-[3-Cyano-4-(tetrahydro-pyran-4-yloxy)-phenyl]-furo[3,2-b]pyridin-2-yl}-3-methoxy-benzoic acid hydrazide] |  |  | 
6.00 to 7.00 | > 7.00 | > 7.00 | CC(C)N1CCN(C(=O)c2ccc(-c3cc4nccc(-c5ccc(OC6CCOCC6)c(C#N)c5)c4o3)cc2)CC1 [Compound 116, 5-{2-[4-(4-Isopropyl-piperazine-1-carbonyl)-phenyl]-furo[3,2-b]pyridin-7-yl}-2-(tetrahydro-pyran-4-yloxy)-benzonitrile] |  |  | 
5.30 to 6.00 | > 7.00 | > 7.00 | CN(C)C(=O)c1cccc(-c2cc3nccc(-c4ccc(OC5CCOCC5)c(C#N)c4)c3o2)c1 [Compound 123] |  |  | 
5.30 to 6.00 | > 7.00 | > 7.00 | CC1(O)CN(C(=O)c2ccc(-c3cc4nccc(-c5ccc(OC6CCOCC6)c(C#N)c5)c4o3)cc2)C1 [Compound 124, 5-{2-[4-(3-Hydroxy-3-methyl-azetidine-1-carbonyl)-phenyl]-furo[3,2-b]pyridin-7-yl}-2-(tetrahydro-pyran-4-yloxy)-benzonitrile] |  |  | 
5.30 to 6.00 | > 7.00 | > 7.00 | N#Cc1cc(-c2ccnc3cc(-c4ccc(C(=O)N5CCN(C6CC6)CC5)cc4)oc23)ccc1OC1CCOCC1 [Compound 133, 5-{2-[4-(4-Cyclopropyl-piperazine-1-carbonyl)-phenyl]-furo[3,2-b]pyridin-7-yl}-2-(tetrahydro-pyran-4-yloxy)-benzonitrile] |  |  | 
6.00 to 7.00 | > 7.00 | > 7.00 | N#Cc1cc(-c2ccnc3cc(-c4ccc(C(=O)N[C@H]5CNCC[C@@H]5F)cc4)oc23)ccc1OC1CCOCC1 [Compound 135, 4-{7-[3-Cyano-4-(tetrahydro-pyran-4-yloxy)-phenyl]-furo[3,2-b]pyridin-2-yl}-N-((3S,4S)-4-fluoro-piperidin-3-yl)-benzamide] |  |  | 
5.30 to 6.00 | > 7.00 | > 7.00 | N#Cc1cc(-c2ccnc3cc(-c4ccc(C(=O)N5CC[C@H](F)C5)cc4)oc23)ccc1OC1CCOCC1 [Compound 136, 5-{2-[4-((S)-3-Fluoro-pyrrolidine-1-carbonyl)-phenyl]-furo[3,2-b]pyridin-7-yl}-2-(tetrahydro-pyran-4-yloxy)-benzonitrile] |  |  | 
5.30 to 6.00 | > 7.00 | > 7.00 | N#Cc1cc(-c2ccnc3cc(-c4cnn(C5COC5)c4)oc23)ccc1OC1CCOCC1 [Compound 138] |  |  | 
